These results are taken from US9233961B2, “Compounds and compositions for the treatment of parasitic diseases” (Novartis AG, priority 2013, dated 2016).

Data set [1] relates to L. donovani HU3 strain in mouse peritoneal macrophages. In words: Assay for proliferation of Leishmania parasites in mouse peritoneal macrophages. The class given is cell-based, Leishmania donovani. The method in brief:
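BALB/c peritoneal macrophages infected 24 h with L. donovani HU3 amastigotes taken from spleens of mice infected 9–11 weeks, then treated with compound for 5 days at 37° C, 5% CO2. Parasite nuclei counted by SYBR Green imaging after fixation; EC50 from percentage inhibition.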

Data set [2] concerns Trypanosoma brucei Lister 427 strain bloodstream form. Kind of data set: Assay for proliferation of kinetoplastid parasite Trypanosoma brucei. It counts as cell-based. Particulars: read-out: T. brucei EC50. Summed up:
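Bloodstream-form T. brucei Lister 427 in HMI-9 medium was exposed to compound (DMSO vehicle) for 48 hours at 37° C, 5% CO2. Parasite growth was read as ATP by CellTiter-Glo luminescence, with EC50 calculated from percent inhibition.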

Data set [3] concerns Trypanosoma cruzi amastigotes (Tulahuen strain) cultured in 3T3 fibroblast cells. In words: Assay for proliferation of kinetoplastid parasite Trypanosoma cruzi. The class given is cell-based. Particulars: 144 h. An excerpt: Assay for Proliferation of Kinetoplastid Parasite Trypanosoma cruzi.
Compounds of the invention can be assayed to measure their capacity to inhibit proliferation of kinetoplastid parasite Trypanosoma cruzi. The screening procedure is for identifying compounds with inhibitor activity against Trypanosoma cruzi amastigotes cultured in 3T3 fibroblast cells. The assay is done using the mammalian stage (amastigotes) of T. cruzi that replicates in the intracellular space of host cells. The host cells are initially infected with the culture-derived trypomastigotes that rapidly invade and then divide as amastigotes. The protocol uses the Tulahuen strain of T. cruzi that has been engineered to express the E. coli beta-galactosidase gene (Lac-Z) (Antimicr. Agents Chemoth. 40:2592, 1996). This allows for a colorimetric readout by using the substrate CPRG and an absorbance plate reader.
3T3 fibroblast cells are re-suspended in RPMI-1640 medium without phenol red medium supplemented with 10% FBS (heat inactivated), 100 μg/ml penicillin, and 100 μg/ml streptomycin. Forty μL of suspension (1,000 cells) is dispensed into 384-well plates and incubated overnight at 37° C. temperature and in atmosphere containing 5% CO2. The following day, 100 nL of compounds of the invention in DMSO are added to plate wells containing 3T3 cells. At the same time control compounds (benznidazole and nifurtimox) and DMSO are added to plates to serve as the positive and negative controls, respectively. After that, 10 μL of media containing 10,000 T. cruzi trypomastigotes are added to each plate well and plates are placed back into incubators. After 6 day incubation, 10 μL of reagent solution (0.6 mM CPRG, 0.6% NP-40 in PBS) is added to plates and incubated at room temperature for 2 hours. Absorbance is then measured on SpectraMax Gemini […] to determine relative number of T. cruzi cells present in each plate well. The percentage inhibition of 50%, EC50, is calculated for each compound. […] Typically, the EC50 is 10 μM or less.

The subject of data set [4] is Leishmania donovani axenic amastigote parasites. In words: Leishmania donovani axenic amastigote proliferation assay. The class given is cell-based. To be noted: read-out: L. donovani amastigotes EC50. The method in brief:
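L. donovani axenic amastigotes (9600/well) in RPMI 1640 with 20% heat-inactivated FBS, folic acid, adenosine, glucose and 25 mM MES, pH 5.5, were incubated with compounds for 2 days at 37 °C, 5% CO2. Viability read by CellTiter-Glo luminescence; EC50 calculated.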

The conditions of data set [5]: patients injected; cited from earlier work.
Where [6] appears, read: Leishmania donovani, Peritoneal macrophage, read-out: L. donavani Macrophage EC50.
The mark [7] stands for this setting: Lister 427 bloodstream form, 48 hours.
The mark [8] stands for this setting: Tulahuen amastigotes in 3T3 fibroblast cells, 6 day incubation, read-out: T cruzi EC50.
The mark [9] stands for this setting: Leishmania donovani, Peritoneal macrophage, 120 h, L. donovani in mouse peritoneal macrophages, 5 days culture, SybrGreen parasite nuclei count, read-out: EC50.
The mark [10] stands for this setting: TULAHUEN, Fibroblast, read-out: T cruzi EC50.

The structures appear in SMILES notation. pEC50: −log10 of the molar value. Where two headings read alike, the source gives them in different places.

As to `Cc1cnc2nc(-c3cc(NC(=O)N(C)c4ccccc4)ccc3Cl)[nH]c2c1` [Compound 241], the pEC50 in data set [1] (setting [6]) was below 4.32; in data set [2] (setting [7]) it was 5.01; in data set [3] (setting [8]), 4.98; in data set [4] (axenic amastigotes in vitro), 4.85.

As for `CCN(C)C(=O)Nc1ccc(Cl)c(-c2nc3ncc(C)cc3[nH]2)c1` [Compound 242], the pEC50 is 4.59 in data set [1] (setting [6]), 6.44 in data set [2] (setting [7]), 5.86 in data set [3] (setting [8]) and 5.37 in data set [4] (axenic amastigotes in vitro).

`Cc1cnc2nc(-c3cc(NC(=O)N(C)C)ccc3Cl)[nH]c2c1` [Compound 243]: the pEC50 was 4.40 in data set [1] (setting [6]), 6.35 in data set [2] (setting [7]), 5.59 in data set [3] (setting [8]) and 5.30 in data set [4] (axenic amastigotes in vitro).

On to `Cc1cnc2nc(-c3cc(NC(=O)N4CCN(C)CC4)ccc3Cl)[nH]c2c1` [Compound 244], for which the pEC50 was below 4.30 in data set [1] (setting [6]), below 4.60 in data set [2] (setting [7]), below 4.70 in data set [3] (setting [8]) and below 4.60 in data set [4] (axenic amastigotes in vitro).

`Cc1ccc(C(=O)Nc2ccc(Cl)c(-c3nc4ncc(C(F)(F)F)cc4[nH]3)c2)o1` [Compound 279]: the pEC50 in data set [1] (setting [6]) was 5.65; in data set [2] (setting [7]), 6.51; in data set [3] (setting [8]), 6.85; in data set [4] (axenic amastigotes in vitro), 6.24.

Regarding `O=C(Cc1cccc(Cl)c1)Nc1ccc(Cl)c(-c2nc3ncc(C(F)(F)F)cc3[nH]2)c1` [Compound 280], the pEC50 is 4.56 in data set [1] (setting [6]), below 4.87 in data set [2] (setting [7]), 5.47 in data set [3] (setting [8]) and 4.67 in data set [4] (axenic amastigotes in vitro).

Take `CS(=O)(=O)c1ccc(-c2cnc3nc(-c4cc(NC(=O)N5CCCC5)ccc4Cl)[nH]c3c2)cc1` [Compound 297]: the pEC50 was 5.26 in data set [1] (setting [6]), 6.73 in data set [2] (setting [7]), 5.28 in data set [3] (setting [8]) and 5.80 in data set [4] (axenic amastigotes in vitro).

On to `CN(C(=O)OC(C)(C)C)c1ccc(-c2cnc3nc(-c4cc(NC(=O)N5CCCC5)ccc4Cl)[nH]c3c2)cc1` [Compound 308, tert-butyl N-[4-(2-{2-chloro-5-[(pyrrolidin-1-yl)carbonylamino]phenyl}-1H-imidazo[4,5-b]pyridin-6-yl)phenyl]-N-methylcarbamate], for which the pEC50 is around 7.10 in data set [1] (setting [9]); 7.07 in data set [1] (setting [6]); 7.60 in data set [2] (setting [7]); 7.64 in data set [3] (setting [8]); 6.94 in data set [4] (axenic amastigotes in vitro).

For the compound `CNc1ccc(-c2cnc3nc(-c4cc(NC(=O)c5cnccn5)ccc4Cl)[nH]c3c2)cc1` [Compound 348], the pEC50 in data set [1] (setting [6]) was 6.04; in data set [2] (setting [7]), 7.62; in data set [3] (setting [8]) it was 7.19; in data set [4] (axenic amastigotes in vitro), 6.60.

For `CCOC(=O)Nc1ccc(Cl)c(-c2nc3ncc(-c4ccc(NC)cc4)cc3[nH]2)c1` [Compound 351], the pEC50 in data set [1] (setting [6]) is 5.43; in data set [2] (setting [7]), 6.69; in data set [3] (setting [8]), 6.61; in data set [4] (axenic amastigotes in vitro), 5.92.

On to `COCCOC(=O)Nc1ccc(Cl)c(-c2nc3ncc(Br)cc3[nH]2)c1` [Compound 371], for which the pEC50 in data set [1] (setting [6]) was 5.19; in data set [2] (setting [7]) it was 5.66; in data set [3] (setting [8]), 5.48; in data set [4] (axenic amastigotes in vitro), 5.63.

On to `O=C(Nc1ccc(Cl)c(-c2nc3ncc(Br)cc3[nH]2)c1)C1CCCC1` [Compound 374], for which the pEC50 in data set [1] (setting [6]) is 5.23; in data set [2] (setting [7]), 5.29; in data set [3] (setting [8]), 6.07; in data set [4] (axenic amastigotes in vitro), 4.78.

As for `O=C(Nc1ccc(Cl)c(-c2nc3ncc(Br)cc3[nH]2)c1)c1cnccn1` [Compound 375], the pEC50 in data set [1] (setting [6]) is below 4.37; in data set [2] (setting [7]), 5.63; in data set [3] (setting [8]), 5.41; in data set [4] (axenic amastigotes in vitro), 5.12.

Regarding `O=C1Cc2cc(-c3cnc4nc(-c5cc(NC(=O)C6CCCC6)ccc5Cl)[nH]c4c3)ccc2N1` [Compound 377], the negative logarithm of the EC50 (pEC50) in data set [1] (setting [6]) was 5.24; in data set [2] (setting [7]), 6.24; in data set [3] (setting [8]) it was 5.69; in data set [4] (axenic amastigotes in vitro), 5.18.

Take `COCCOC(=O)Nc1ccc(Cl)c(-c2nc3ncc(-c4ccc5c(c4)CC(=O)N5)cc3[nH]2)c1` [Compound 379]: the pEC50 in data set [1] (setting [6]) was 5.06; in data set [2] (setting [7]), 6.16; in data set [3] (setting [8]), 4.88; in data set [4] (axenic amastigotes in vitro), 5.83.

Regarding `Cc1cnc2nc(-c3cc(NC(=O)NCCN(C)C)ccc3Cl)[nH]c2c1` [Example 226, 1-(4-Chloro-3-{6-methyl-1H-imidazo[4,5-b]pyridin-2-yl}phenyl)-3-[2-(dimethylamino)ethyl]urea], the negative logarithm of the EC50 (pEC50) in data set [1] (setting [6]) was below 4.30; in data set [2] (48 h), below 4.65; in data set [3] (setting [10]) it was below 4.70; in data set [4] it was below 4.60.

In the case of `O=C(Nc1ccc(Cl)c(-c2nc3ncc(-c4ccccc4)cc3[nH]2)c1)N1CCCC1` [Example 291, N-(4-chloro-3-{6-phenyl-1H-imidazo[4,5-b]pyridin-2-yl}phenyl)pyrrolidine-1-carboxamide], the negative-log EC50 (pEC50) in data set [1] (L. donovani in mouse peritoneal macrophages, 5 days culture, SybrGreen parasite nuclei count, read-out: EC50) is around 7.10; in data set [1] (setting [9]), 7.12; in data set [2] (setting [7]), 7.82; in data set [3] (TULAHUEN, Fibroblast), 7.80; in data set [3] (setting [10]), 7.79; in data set [4] (axenic amastigotes in vitro) it was 7.12.

With `CNc1ccc(-c2cnc3nc(-c4cc(NC(=O)OCCOC)ccc4Cl)[nH]c3c2)cc1` [Example 350, 2-Methoxyethyl N-(4-chloro-3-{6-[4-(methylamino)phenyl]-1H-imidazo[4,5-b]pyridin-2-yl}phenyl)carbamate], the pEC50 in data set [1] (setting [6]) was 5.90; in data set [2] (48 h), 6.10; in data set [3] (setting [10]) it was 6.29; in data set [4] it was 6.17.

As to `CCOC(=O)Nc1ccc(Cl)c(-c2nc3ncc(Br)cc3[nH]2)c1` [Example 370, Ethyl N-(3-{6-bromo-1H-imidazo[4,5-b]pyridin-2-yl}-4-chlorophenyl)carbamate], the pEC50 was 5.13 in data set [1] (setting [6]), 6.28 in data set [2] (48 h), 5.92 in data set [3] (setting [10]) and 5.60 in data set [4].

As to `Nc1nc(N)nc(Nc2ccc([As]3SCC(CO)S3)cc2)n1` (stereo not drawn) [Melarsoprol], in data set [5], the “patients who developed reactive encephalopathy (convulsions, progressive coma, or psychotic reactions)” value is 3-10% and the “reactive encephalopathy cases that result in death” value was 10-70%.

By pEC50 is commonly meant the EC50 on a negative log10 scale, so that one unit is a factor of ten.
